Assays:
rodent = rodent studies, relatively high doses (100 to 500 mg/kg); cited from earlier work
[1] = tested on: STZ (130 mg/kg) diabetic pigs; test: Hyperinsulinemic euglycemic clamp in STZ diabetic pigs after two-week metformin treatment; format: in vivo, pig
Procedure: (§1) Protocol 5: insulin-mediated whole body glucose disposal, after a two-week placebo or metformin (twice 1.5 g per day) oral treatment period under conditions of iso-energetic feeding, was studied with the hyperinsulinemic (2 mU/kg/minute) euglycemic clamp technique in 14 STZ (130 mg/kg) diabetic pigs.
After overnight fasting, at t=0 minute, insulin was administered as a prime—(17 or 34 mU/kg) continuous (1 or 2 mU/kg/minute) infusion for three hours in normal pigs. Simultaneously, a variable infusion of a 33% D-glucose solution was started and adjusted every ten minutes to maintain the plasma glucose concentration at euglycemic levels and a 6,6-^2H-glucose solution was given as a prime—(216 mg) continuous (3.6 mg/minute). Steady-state conditions were achieved within 90 minutes after initiation of the hyperinsulinemic clamp and steady-state calculations were carried out during the last hour of the clamp (t=120, 135, 150, 165 and 180 minutes). In hyperglycemic diabetic pigs, insulin was given as a prime—(34 or 136 mU/kg) continuous (2 or 8 mU/kg/minute) infusion for five hours. After reaching euglycemic levels, a variable infusion of a 33% D-glucose solution was started and adjusted every ten minutes to maintain the plasma glucose concentration at euglycemia. At t=2 hours, 6,6-^2H-glucose was administered as a prime— (216 mg) continuous (3.6 mg/minute) infusion for the last three hours of the clamp in diabetic pigs. Steady-state conditions were achieved during the last hour of the clamp and steady-state calculations were carried out at (t=240, 255, 270, 285 and 300 minutes).

[2] = tested on: STZ (130 mg/kg) diabetic pigs; test: Two-week oral metformin treatment of STZ diabetic pigs: postprandial plasma glucose and insulin, body weight, urinary glucose excretion; format: in vivo, pig
Procedure: as §1
Fasting blood samples were taken before the start of hyperinsulinemic clamp experiments and postprandial blood samples were taken two to three hours after a morning meal in the week following a clamp study.
Plasma insulin concentration was measured using a Delfia assay (test kit No. B080-1101 by Perkin Elmer Life Sciences, trust by Wallac Oy, Turku, Finland). This specific pig insulin assay was validated using pig insulin standards. Plasma and urine glucose concentrations were analyzed enzymically on an autoanalyzer of Radiometer (ABL and AML, Copenhagen, Denmark). Urine was collected in buckets containing 0.5 grams Halamid-d (sodium-p-toluenesulfonchloramide, Akzo Nobel Chemicals, Amersfoort, NL) to prevent microbial breakdown of glucose. Urine volume was registered over a given interval in order to calculate the rate of urinary glucose excretion. Urine samples (0.5 mL) were stored at −20° C. for later glucose analyses. Ketones (acetoacetic acid) were determined in fresh urine by a reagent strip test (Ketostix, Bayer Diagnostics, Mijdrecht, NL).

[3] = after two weeks metformin, insulin 2 mU/kg/minute
[4] = metformin twice 1.5 g per day oral, two weeks

SMILES: CN(C)C(=N)N=C(N)N [Metformin, metformin]
- Effect on glucose homeostasis (rodent): immediate (within days) effect
- Fasting plasma glucose ([1]; after two weeks metformin): 14.7 ± 1.5 mmol/L
- Fasting plasma insulin ([1]; after two weeks metformin): 11 ± 6 mU/L
- Fasting plasma insulin, range ([1]; after two weeks metformin): range (3-37) mU/L
- Increase in insulin-stimulated whole body glucose disposal compared to placebo-treated diabetic pigs ([1]; after two weeks metformin): 60%
- Reduction in fasting plasma glucose compared to placebo-treated diabetic pigs ([1]; after two weeks metformin): 24%
- Steady-state clamp glucose infusion rate (whole body glucose disposal) [1, 3]: 9.4 ± 2.2 mg/kg/min
- Steady-state clamp plasma glucose [1, 3]: 5.3 ± 0.3 mmol/L
- Steady-state clamp plasma insulin [1, 3]: 42 ± 7 mU/L
- Time to reach euglycemia in diabetic pigs [1, 3]: 105 ± 28 min
- Steady-state clamp glucose infusion rate (whole body glucose disposal) ([1]; after two weeks metformin, insulin 2 mU/kg/minute, listed as metformin): 9.4 mg/kg/min
- Whole body glucose disposal, metformin group compared to placebo group ([1]; similar insulin stimulation): 1.6 fold
- Reduction in postprandial plasma glucose compared to placebo-treated pigs ([2]; after 14 days of metformin): 30%
- Postprandial plasma glucose, before treatment ([2]; metformin group, baseline): 31.0 ± 5.8 mmol/L
- Postprandial plasma insulin, before treatment ([2]; metformin group, baseline): 1 ± 0 mU/L
- Postprandial plasma glucose, at end of treatment [2, 4]: 24.9 ± 2.2 mmol/L
- Postprandial plasma insulin, at end of treatment [2, 4]: 3 ± 1 mU/L

— patent publication US20070271620A1, “Animal model for type II diabetes mellitus and Syndrome X and methods and uses thereof” (priority 2005, published 2007)
